Results published in patent US8686044B2, “Amide derivative, pest control agent containing the amide derivative, and use of the amide derivative” (Mitsui Chemicals Agro, Inc., priority 2008, dated 2014).

Assays:
Type in all cases: in vivo
Plutella xylostella = assay: Pesticidal test against Plutella xylostella (cabbage leaf dip); conditions: foliar, 144 h, concentration 1 ppm, 2-stage larvae, examined after 6 days, 25° C., read-out: pesticidal rate
Method in brief: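 Cabbage leaf pieces dipped 30 s in test solution at a predetermined concentration, air-dried, then offered to 2nd-instar larvae, five per group in duplicate. Held at 25° C; living and dead larvae counted after 6 days.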

Spodoptera litura = assay: Pesticidal test against Spodoptera litura (cabbage leaf dip); conditions: foliar, 144 h, concentration 1 ppm, 2-stage larvae, examined after 6 days, 25° C., read-out: pesticidal rate
Method in brief: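 Cabbage leaf pieces dipped 30 seconds in compound solution at a predetermined concentration and air-dried, then offered to second-stage larvae, five per group in two replicates. Held at 25° C. Living and dead larvae counted after 6 days.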

Blattella germanica = assay: Pesticidal test against Blattella germanica (petri dish dry film); conditions: 24 h, concentration 100 ppm, female adults, examined after 1 day, 25° C., read-out: pesticidal rate
Protocol: Pesticidal Test against Blattella germanica
1 ml of an acetone solution in which a test compound had been prepared at a predetermined concentration was added dropwise to a petri dish having a diameter of 9 cm, and air-dried, and then the female adults of Blattella germanica were released and the petri dish was capped. They were left to stand in a thermostatic chamber at 25° C., and the numbers of the living pests and the dead pests were examined after 1 day. The test was carried out with five larvae per group in two replicates.

Laodelphax striatellus = assay: Pesticidal test against Laodelphax striatellus (rice seedling spray); conditions: 144 h, concentration 100 ppm, 3-stage larvae, examined after 6 days, 25° C., read-out: pesticidal rate
Method in brief: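 Rice seedlings sprayed with 2.5 ml acetone solution of compound at a predetermined concentration, air-dried, then infested with third-stage Laodelphax striatellus larvae in capped water-containing tubes at 25 °C. Living and dead insects counted after 6 days; ten larvae per group, two replicates.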

Musca domestica = assay: Pesticidal test against Musca domestica (petri dish dry film); conditions: 24 h, concentration 100 ppm, female adults, examined after 1 day, 25° C., read-out: pesticidal rate
Method in brief: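 Dry film from 1 ml acetone solution of compound at a predetermined concentration, air-dried in a 9 cm petri dish; female adult flies released and dish capped. Held at 25° C; living and dead counted after 1 day. Five insects per group, two replicates.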

Helicoverpa armigera = assay: Pesticidal test against Helicoverpa armigera (cabbage leaf disk dip); conditions: foliar, 72 h, concentration 1 ppm, 2-stage larvae, examined after 3 days, 25° C., read-out: pesticidal rate
Method in brief: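 Cabbage leaf disks were dipped for 30 s in test solution at a set concentration and air-dried. Second-instar larvae were placed one per hole and held at 25 °C, with live and dead counts taken after 3 days. Five larvae per group were tested in two replicates.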

Adoxophyes honmai = assay: Pesticidal test against Adoxophyes honmai (artificial feed dip); conditions: 144 h, concentration 1 ppm, 2-stage larvae, examined after 6 days, 25° C., read-out: pesticidal rate
Method in brief: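 Thin artificial feed slices dipped 30 s in test solution at a predetermined concentration, air-dried, then offered to 2nd-stage larvae. Kept at 25° C; live and dead larvae counted after 6 days. Five larvae per group, two replicates.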

O=C(Nc1c(I)cc(C(F)(C(F)(F)F)C(F)(F)F)cc1C(F)(F)F)c1cccc(NC(=O)c2c(F)cccc2F)c1F [6-1752]
≥ 70%: pest or weed control at 1 ppm (Plutella xylostella) | pest or weed control at 1 ppm (Spodoptera litura) | pest or weed control at 100 ppm (Blattella germanica) | pest or weed control at 100 ppm (Laodelphax striatellus) | pest or weed control at 100 ppm (Musca domestica)

CN(C(=O)c1c(F)cccc1F)c1cccc(C(=O)Nc2c(I)cc(C(F)(C(F)(F)F)C(F)(F)F)cc2C(F)(F)F)c1F [7-1752]
≥ 70%: pest or weed control at 1 ppm (Plutella xylostella) | pest or weed control at 1 ppm (Spodoptera litura) | pest or weed control at 100 ppm (Blattella germanica) | pest or weed control at 100 ppm (Laodelphax striatellus) | pest or weed control at 100 ppm (Musca domestica)

O=C(Nc1c(I)cc(C(F)(C(F)(F)F)C(F)(F)C(F)(F)F)cc1C(F)(F)F)c1cccc(NC(=O)c2cccnc2Cl)c1 (centres unmarked) [6-538]
≥ 70%: pest or weed control at 1 ppm (Plutella xylostella) | pest or weed control at 1 ppm (Spodoptera litura) | pest or weed control at 100 ppm (Blattella germanica) | pest or weed control at 1 ppm (Helicoverpa armigera) | pest or weed control at 1 ppm (Adoxophyes honmai) | pest or weed control at 100 ppm (Musca domestica)

O=C(Nc1cccc(C(=O)Nc2c(Br)cc(C(F)(C(F)(F)F)C(F)(F)F)cc2C(F)(F)F)c1F)c1ccc(Cl)nc1 [6-1617]
≥ 70%: pest or weed control at 1 ppm (Plutella xylostella) | pest or weed control at 1 ppm (Spodoptera litura) | pest or weed control at 100 ppm (Blattella germanica) | pest or weed control at 100 ppm (Laodelphax striatellus) | pest or weed control at 100 ppm (Musca domestica)

N#Cc1cccc(C(=O)Nc2cccc(C(=O)Nc3c(Br)cc(C(F)(C(F)(F)F)C(F)(F)F)cc3C(F)(F)F)c2F)c1 [6-1594]
≥ 70%: pest or weed control at 1 ppm (Plutella xylostella) | pest or weed control at 1 ppm (Spodoptera litura) | pest or weed control at 100 ppm (Blattella germanica) | pest or weed control at 100 ppm (Laodelphax striatellus) | pest or weed control at 1 ppm (Helicoverpa armigera) | pest or weed control at 1 ppm (Adoxophyes honmai) | pest or weed control at 100 ppm (Musca domestica)

O=C(Nc1cccc(C(=O)Nc2c(Br)cc(C(F)(C(F)(F)F)C(F)(F)C(F)(F)F)cc2Br)c1F)c1cccnc1Cl (centres unmarked) [6-1218]
≥ 70%: pest or weed control at 1 ppm (Plutella xylostella) | pest or weed control at 1 ppm (Spodoptera litura) | pest or weed control at 100 ppm (Blattella germanica) | pest or weed control at 100 ppm (Laodelphax striatellus) | pest or weed control at 100 ppm (Musca domestica)

O=C(Nc1cccc(C(=O)Nc2c(Br)cc(C(F)(C(F)(F)F)C(F)(F)F)cc2Br)c1F)c1ccc(Cl)nc1 [6-1147]
≥ 70%: pest or weed control at 1 ppm (Plutella xylostella) | pest or weed control at 1 ppm (Spodoptera litura) | pest or weed control at 100 ppm (Blattella germanica) | pest or weed control at 100 ppm (Laodelphax striatellus) | pest or weed control at 100 ppm (Musca domestica)

O=C(Nc1cccc(C(=O)Nc2c(Br)cc(C(F)(C(F)(F)F)C(F)(F)F)cc2Br)c1F)c1ccc(F)cc1 [6-1107]
≥ 70%: pest or weed control at 1 ppm (Plutella xylostella) | pest or weed control at 1 ppm (Spodoptera litura) | pest or weed control at 100 ppm (Blattella germanica) | pest or weed control at 100 ppm (Laodelphax striatellus) | pest or weed control at 100 ppm (Musca domestica)

O=C(Nc1cccc(C(=O)Nc2c(Br)cc(C(F)(C(F)(F)F)C(F)(F)F)cc2C(F)(F)F)c1F)c1ccccc1F [6-1575]
≥ 70%: pest or weed control at 1 ppm (Plutella xylostella) | pest or weed control at 1 ppm (Spodoptera litura) | pest or weed control at 100 ppm (Blattella germanica) | pest or weed control at 100 ppm (Laodelphax striatellus) | pest or weed control at 100 ppm (Musca domestica)

O=C(Nc1c(Br)cc(C(F)(C(F)(F)F)C(F)(F)C(F)(F)F)cc1Br)c1cccc(NC(=O)c2c(F)cccc2F)c1 (centres unmarked) [6-47]
≥ 70%: pest or weed control at 1 ppm (Plutella xylostella) | pest or weed control at 1 ppm (Spodoptera litura) | pest or weed control at 100 ppm (Blattella germanica) | pest or weed control at 100 ppm (Laodelphax striatellus) | pest or weed control at 100 ppm (Musca domestica)

O=C(Nc1c(Br)cc(C(F)(C(F)(F)F)C(F)(F)F)cc1Br)c1cccc(NC(=O)c2c(F)cccc2F)c1F [6-1126]
≥ 70%: pest or weed control at 1 ppm (Plutella xylostella) | pest or weed control at 1 ppm (Spodoptera litura) | pest or weed control at 100 ppm (Blattella germanica) | pest or weed control at 100 ppm (Laodelphax striatellus) | pest or weed control at 100 ppm (Musca domestica)

O=C(Nc1cccc(C(=O)Nc2c(I)cc(C(F)(C(F)(F)F)C(F)(F)F)cc2C(F)(F)F)c1F)c1ccc(Cl)nc1 [6-1773]
≥ 70%: pest or weed control at 1 ppm (Plutella xylostella) | pest or weed control at 1 ppm (Spodoptera litura) | pest or weed control at 100 ppm (Blattella germanica) | pest or weed control at 100 ppm (Laodelphax striatellus) | pest or weed control at 100 ppm (Musca domestica)

O=C(Nc1cccc(C(=O)Nc2c(Br)cc(C(F)(C(F)(F)F)C(F)(F)C(F)(F)F)cc2Br)c1F)c1cccc(F)c1 (centres unmarked) [6-1184]
≥ 70%: pest or weed control at 1 ppm (Plutella xylostella) | pest or weed control at 1 ppm (Spodoptera litura) | pest or weed control at 100 ppm (Blattella germanica) | pest or weed control at 100 ppm (Laodelphax striatellus) | pest or weed control at 100 ppm (Musca domestica)
